The values that follow come from BindingDB's records for doi:10.7270/Q2JW8CBM (Burnham Center For Chemical Genomics, 2010).

The target of the assay is Nucleotide-binding oligomerization domain-containing protein 2 (Homo sapiens, UniProt Q9HC29). The assay can be described thus: NOD2 inhibitors, SAR follow-up, set 2 (AID 2475).
Sequence of Nucleotide-binding oligomerization domain-containing protein 2 (Q9HC29 whole entry, the tested form may be a part): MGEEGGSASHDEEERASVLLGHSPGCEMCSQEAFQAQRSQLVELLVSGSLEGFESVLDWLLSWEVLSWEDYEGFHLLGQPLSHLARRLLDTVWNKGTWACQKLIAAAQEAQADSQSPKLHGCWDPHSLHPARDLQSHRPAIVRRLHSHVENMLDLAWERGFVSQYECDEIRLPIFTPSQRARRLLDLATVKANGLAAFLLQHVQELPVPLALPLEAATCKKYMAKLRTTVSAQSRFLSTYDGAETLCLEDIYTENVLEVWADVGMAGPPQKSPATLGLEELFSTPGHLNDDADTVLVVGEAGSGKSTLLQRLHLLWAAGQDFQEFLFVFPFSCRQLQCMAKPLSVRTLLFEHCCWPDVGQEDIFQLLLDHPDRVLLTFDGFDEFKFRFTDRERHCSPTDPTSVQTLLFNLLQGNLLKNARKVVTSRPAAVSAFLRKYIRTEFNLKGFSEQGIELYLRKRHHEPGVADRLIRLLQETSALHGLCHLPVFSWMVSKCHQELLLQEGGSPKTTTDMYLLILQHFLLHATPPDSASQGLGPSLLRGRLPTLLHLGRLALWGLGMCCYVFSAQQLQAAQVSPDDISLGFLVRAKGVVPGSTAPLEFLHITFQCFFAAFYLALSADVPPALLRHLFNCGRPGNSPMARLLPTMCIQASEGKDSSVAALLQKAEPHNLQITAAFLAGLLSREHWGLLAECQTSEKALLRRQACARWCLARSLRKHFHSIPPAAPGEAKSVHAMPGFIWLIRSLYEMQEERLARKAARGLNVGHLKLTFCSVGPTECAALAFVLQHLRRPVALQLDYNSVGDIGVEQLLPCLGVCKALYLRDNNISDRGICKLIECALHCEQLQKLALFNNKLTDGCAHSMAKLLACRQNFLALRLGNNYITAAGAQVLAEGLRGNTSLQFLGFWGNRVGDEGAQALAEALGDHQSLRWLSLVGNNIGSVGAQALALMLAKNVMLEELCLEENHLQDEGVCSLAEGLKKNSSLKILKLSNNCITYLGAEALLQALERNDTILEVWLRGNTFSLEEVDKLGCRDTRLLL

In the case of `Cc1cc(SCC(=O)OCC(=O)C(C#N)c2nc3ccccc3[nH]2)c(C)cc1Br` (configuration not stated), the IC50 turned out to be 5.19 µM.

Take `Cc1ccc(C)c(SCC(=O)OCC(=O)C(C#N)c2nc3ccccc3[nH]2)c1` (configuration not stated) [MLS000392255]: the half-inhibitory concentration (IC50) is 4.21 µM.
